Reference: article PMC4382466 (Toxicologic pathology, 2014)
Read-outs that look alike come from different tables or passages of the source.

Experiments:
[1] = tested on: Fischer 344 rats; details: rat, in vivo
[2] = tested on: Fischer 344 rats; test: Kidney and urinary bladder histopathology; format: in vivo; details: 6 animals
[3] = tested on: Fischer 344 rats; test: Mesna as mitigating co-treatment of batracylin-induced toxicity; details: male rats, mesna study, Day 5
[4] = tested on: γH2AX; test: γH2AX immunofluorescence staining of kidney sections; format: in vivo, Fischer 344 rats; details: five imaged fields, one rat/sex/group
[5] = tested on: Fischer 344 rats; details: rat, in vivo; remark: listed apart in the source
[6] = tested on: Fischer 344 rats; details: rat, in vivo; remark: listed apart in the source
[7] = tested on: rats; details: one-tenth the mouse LD10, ref NationalTechnicalInformationService; cited from earlier work
[8] = tested on: Fischer 344 rats; test: Clinical signs and body weights; format: in vivo; details: n=6/sex/group
[9] = tested on: dogs; details: two times the mouse LD50; ref NationalTechnicalInformationService; cited from earlier work
[10] = tested on: γH2AX; test: γH2AX immunofluorescence staining of bone marrow; format: in vivo, Fischer 344 rats
[11] = set-up: species or system Fischer 344 rats; details: in vivo, po
[12] = oral batracylin 590 mg/m^2; ref Ames et al., 1991; cited from earlier work
[13] = male, Fischer 344, rat, 16 mg/kg
[14] = male, Fischer 344, rat, 32 mg/kg

Nc1ccc2c(c1)CN1C(=O)c3ccccc3C1=N2 [batracylin, 8-aminoisoindolo[1,2-b]quinazolin-12(10H)-one]
Protein casts, severity [1]: mild to moderate
Tubular dilation, severity [1]: mild
Urothelial atrophy, severity [1]: mild to moderate
Urothelial vacuolation, severity [1]: minimal to mild
Kidney: non-inflammatory tubular degeneration, severity (incidence) ([2]; 16 mg/kg/day po x4 days, females): Mild (4), Moderate (2)
Kidney: non-inflammatory tubular degeneration, severity (incidence) ([2]; 16 mg/kg/day po x4 days, males): Mild (6)
Kidney: non-inflammatory tubular degeneration, severity (incidence) ([2]; 32 mg/kg/day po x4 days, females): Moderate (4), Marked (2)
Kidney: non-inflammatory tubular degeneration, severity (incidence) ([2]; 32 mg/kg/day po x4 days, males): Moderate (6)
Non-inflammatory tubular degeneration, severity [3]: moderate
Tubular epithelial regeneration, severity [3]: mild
Nuclei γH2AX positive, renal cortex ([4]; female rat, 16 mg/kg batracylin): 22%
Nuclei γH2AX positive, renal cortex ([4]; female rat, 32 mg/kg batracylin): 15%
Nuclei γH2AX positive, renal cortex ([4]; male rat, 16 mg/kg batracylin): 13%
Nuclei γH2AX positive, renal cortex ([4]; male rat, 32 mg/kg batracylin): 29%
Incidence of visibly red urine [5]: 4 of the 6
Lymphocytes, % of the total WBC population [6]: 19%
Neutrophils, % of the total WBC population [6]: 78%
Toxicity of oral batracylin in rats [7]: lethal
Rats displaying evidence of toxicity (clinical signs) ([8]; Day 3, high-dose group (32 mg/kg/day)): all of the rats
Rats displaying evidence of toxicity (clinical signs) ([8]; Day 3, low-dose group (16 mg/kg/day)): a third of the rats
Toxicity of oral batracylin in dogs [9]: only slight toxicity
Bone marrow cellular nuclei γH2AX positive ([10]; 4 of 6 low-dose females (16 mg/kg)): Less than 0.5%
Bone marrow cellular nuclei γH2AX positive ([10]; all 6 low-dose males (16 mg/kg)): Less than 0.5%
AUC(0-inf) [11, 13]: 118 ng·h/mL
AUC(0-t) [11, 13]: 98.3 ng·h/mL
Cmax [11, 13]: 11.1 ng/mL
Tmax [11, 13]: 4 h
k el [11, 13]: 4.83e-05 s⁻¹
half-life ([11]; male, Fischer 344, rat, 16 mg/kg, Half-life): 4 h
AUC(0-inf) [11, 14]: 144 ng·h/mL
AUC(0-t) [11, 14]: 112 ng·h/mL
Cmax [11, 14]: 11.8 ng/mL
Tmax [11, 14]: 4 h
half-life [11, 14]: 11.1 h
k el [11, 14]: 1.72e-05 s⁻¹
half-life ([11]; male, Fischer 344, rat, 32 mg/kg, Half-life): 11 h
half-life ([11]; male, Fischer 344, rat, 32 mg/kg, half-life): 4 to 11 h

N-acetylbatracylin [NAB]
Systemic levels of NAB, times greater in the rat than in the mouse [12]: approximately 9 times
increase of AUC0-24 hr for a 2-fold increase in dose ([11]; rat): 2.9 fold
AUC0-24 ([11]; rat, 16 mg/kg): 15150 ng·h/mL
AUC0-∞ ([11]; rat, 16 mg/kg): 15240 ng·h/mL
Cmax ([11]; rat, 16 mg/kg): 2507 ng/mL
Kel ([11]; rat, 16 mg/kg): 0.755 h⁻¹
Tmax ([11]; rat, 16 mg/kg): 4 h
AUC0-24 ([11]; rat, 32 mg/kg): 44620 ng·h/mL
AUC0-∞ ([11]; rat, 32 mg/kg): 45170 ng·h/mL
Cmax ([11]; rat, 32 mg/kg): 7214 ng/mL
Kel ([11]; rat, 32 mg/kg): 0.108 h⁻¹
NAB AUC0-24 hr, times greater than the corresponding value for batracylin ([11]; rat, 32 mg/kg): 398 times
NAB Cmax, times greater than the corresponding value for batracylin ([11]; rat, 32 mg/kg): 611 times
Tmax ([11]; rat, 32 mg/kg): 4 h
